Assay results as given in paper PMC12189671, “Antioxidant Activity and Cytotoxicity Evaluation of New Catechol Hydrazinyl-Thiazole Derivatives as Potential Protectors in Retinal Degenerative Processes” (Antioxidants, 2025).

Legend:
[1] = Cell viability (resazurin) on BJ; format: cell-based; conditions: human, BJ cells; for IC50 at 24 h: read-out: 24 h Exposure IC50 (cytotoxicity); for IC50 at 48 h: read-out: 48 h Exposure IC50 (cytotoxicity)
Description: (§1) The ARPE-19 cell line was purchased from CLS Cell Lines Service GmbH (Eppelheim, Germany) and cultured in Dulbecco’s modified Eagle’s medium/F-12 (HAM) 1:1 (Biological Industries, Beit, Israel). The medium was supplemented with 10% fetal bovine serum (FBS) (Thermo Fisher Scientific, Waltham, MA, USA) and 1% penicillin-streptomycin (Biosera, Cholet, France). The cancerous cell line A549 was purchased from ATCC (Manassas, VA, USA) and cultivated in high-glucose Dulbecco’s modified Eagle’s medium (DMEM 4.5 g/L). The normal BJ cell line was also purchased from ATCC (Manassas, VA, USA) and was cultivated in low-glucose Dulbecco’s modified Eagle’s medium (DMEM 1 g/L). The media was supplemented in both cases with 10% FBS. Cells were cultured in T75 flasks and incubated at 37 °C in a humidified incubator with 5% CO2 supplementation. For maintenance, the media was changed every 2–3 days, and when the confluence of the flask reached approximately 85%, the cells were either subcultured or further used in the experiments.
(§2) ARPE-19 cells were seeded at a density of 2 × 10^4 cells/well and 1 × 10^4 cells/well (suspended in 100 µL) in 96-well plates for 24 h and 48 h, respectively. For the BJ cells, the seeding density was 0.5 × 10^4 cells/well and 0.3 × 10^4 cells/well for 24 h and 48 h, respectively, and for the A549 cells, 1.5 × 10^4 cells/well for 24 h and 0.75 × 10^4 cells/well for 48 h. As cells have different sizes and volumes, the different seeding densities were selected to reach a confluency of 80–90% by the end of the experiments. Cells were further exposed to the synthesized compounds for 24/48 h at concentrations ranging from 12.5 to 500 µM. After the incubation period, the exposure media was removed, the cells were washed with PBS, and further incubated with a 200 µM resazurin solution for 3 h as described in our previous report. The conversion of resazurin to the fluorescent resorufin compound by viable cells was measured at λexcitation = 550; λemission = 600, using SpectraMax iD3 (Molecular Devices, San Jose, CA, USA). The experiments were conducted in biological triplicate, each with a minimum of 3 technical replicates. The measured viability was expressed as relative values to the control (cells exposed only to the vehicle–culture medium containing 0.4% DMSO).

[2] = Total Antioxidant Capacity (TAC) assay; conditions: molar equivalents of reference compound
Description: The results of the evaluation of the electron ability transfer of the tested compound were expressed as molar equivalents of the reference compound per one mol of the tested compound using the formula: % of control activity=sample absorbance/reference absorbance×100 The Total Antioxidant Capacity (TAC) assay operates on the principle of reducing molybdenum (VI) to molybdenum (V) by the antioxidants being assessed, resulting in the formation of a blue-green complex. This assay was performed following the methodology detailed in our previous publication, which was based on initial reports from the literature. […] These were then incubated in a water bath at 95 °C for 90 min. After cooling to room temperature, 1 mL of each solution was diluted with 1 mL of water. The absorbance of the solutions was subsequently measured at λ = 695 nm.

[3] = Cell viability (resazurin) on ARPE-19; format: cell-based, human; conditions: human, ARPE-19 cells; for IC50 at 24 h: ARPE-19, 24 h, read-out: 24 h Exposure IC50 (cytotoxicity); for IC50 at 48 h: ARPE-19, 48 h, read-out: 48 h Exposure IC50 (cytotoxicity)
Description: as §1, §2

[4] = Ferrous ions chelation assay (ferrozine)
Description: Solutions of the tested compounds or ethylenediaminetetraacetic acid disodium salt (EDTA-Na2), used as a positive control, were thoroughly mixed with 0.5 mL of FeSO4 (0.125 mM) and 0.5 mL of ferrozine (0.315 mM). After a 10-min incubation in the dark at room temperature, the absorbance was measured at λ = 562 nm.

[5] = Cell viability (resazurin) on A549; format: cell-based; conditions: human, A549 cells; for IC50 at 24 h: A549, 24 h, read-out: 24 h Exposure IC50 (cytotoxicity); for IC50 at 48 h: A549, 48 h, read-out: 48 h Exposure IC50 (cytotoxicity)
Description: as §1, §2

[6] = Reducing Power (RP) assay; conditions: molar equivalents of reference compound
Description: The results of the evaluation of the electron ability transfer of the tested compound were expressed as molar equivalents of the reference compound per one mol of the tested compound using the formula: % of control activity=sample absorbance/reference absorbance×100 In the Reducing Power (RP) assay, the tested compounds reduce ferric ions from potassium ferricyanide, forming ferrocyanide, which produces a blue complex. The protocol used is an adaptation of previously reported methodologies. […] The tubes were sealed and incubated for 20 min in a water bath at 50 °C. […] Subsequently, 250 µL of the resulting solutions were mixed with 140 µL of FeCl3 solution (0.1% w/v) and 1000 µL of distilled water, and the absorbance of the resulting solutions was measured at λ = 695 nm.

ARPE-19 cells = assay: Cell viability (resazurin) on ARPE-19; format: cell-based, human; conditions: ARPE-19, up to 50 µM
Description: as §1, §2

For `CC1=C(/C=C/C(C)=N/Nc2nc(-c3ccc(O)c(O)c3)cs2)C(C)(C)CCC1.Cl` [Compound 5b, 4-(2-(2-((2E,3E)-4-(2,6,6-trimethylcyclohex-1-en-1-yl)but-3-en-2-ylidene) hydrazineyl)thiazol-4-yl)benzene-1,2-diol hydrochloride], the IC50 at 24 h [1] was 141 µM, the IC50 at 48 h [1] was 152 µM and the “TAC Eq Ascorbic Acid” value [2] was 2.56 Eq Ascorbic Acid. For the same molecule, the IC50 at 24 h [3] was 31.5 µM, the IC50 at 48 h [3] was 52.1 µM and the viability at 24 h, 12.5 µM ([3]; ARPE-19, 24-h exposure, 12.5 µM, read-out: cell viability (% of control)) was 63.5%. For the same molecule, the “% of ferrous ions chelation” value ([4]; 50 nM) was “− (less than 5% chelation activity)”, the “% of ferrous ions chelation” value ([4]; 100 nM) was “− (less than 5% chelation activity)” and the “% of ferrous ions chelation” value ([4]; 150 nM) was “− (less than 5% chelation activity)”. The “% of ferrous ions chelation” value ([4]; 175 nM) was “− (less than 5% chelation activity)”, the “% of ferrous ions chelation” value ([4]; 200 nM) was “− (less than 5% chelation activity)” and the IC50 at 24 h [5] was 167 µM. The IC50 at 48 h [5] was 39.6 µM, the “RP Eq Ascorbic Acid” value [6] was 1.90 Eq Ascorbic Acid and the “RP Eq Trolox” value [6] was 1.58 Eq Trolox.
In the case of `C/C=C/C=N/Nc1nc(-c2ccc(O)c(O)c2)cs1.Cl` [Compound 5a, 4-(2-(2-((1E,2E)-but-2-en-1-ylidene)hydrazineyl)thiazol-4-yl)benzene-1,2-diol hydrochloride], the IC50 at 24 h [1] is reported as 144 µM, the IC50 at 48 h [1] is reported as 162 µM and the “TAC Eq Ascorbic Acid” value [2] is reported as 2.82 Eq Ascorbic Acid. The “effect on ARPE-19 cell viability” value (ARPE-19 cells) was “slight proliferative effect”, the IC50 at 24 h [3] was 90.1 µM and the IC50 at 48 h [3] was 92.7 µM. For the same molecule, the “% of ferrous ions chelation” value ([4]; 50 nM) was “− (less than 5% chelation activity)”, the “% of ferrous ions chelation” value ([4]; 100 nM) was “− (less than 5% chelation activity)” and the “% of ferrous ions chelation” value ([4]; 150 nM) was “− (less than 5% chelation activity)”. The “% of ferrous ions chelation” value ([4]; 175 nM) was “− (less than 5% chelation activity)”, the “% of ferrous ions chelation” value ([4]; 200 nM) was “− (less than 5% chelation activity)” and the IC50 at 24 h [5] was 147 µM. For the same molecule, the IC50 at 48 h [5] was 109 µM, the “RP Eq Ascorbic Acid” value [6] was 2.55 Eq Ascorbic Acid and the “RP Eq Trolox” value [6] was 2.12 Eq Trolox.
